Assay results published in patent US20160130224A1, “Novel Pyrrole Derivatives” (priority 2013, published 2016).
Counter-ions that a name gives are not always drawn. Like-named read-outs stand apart in the source and are kept apart here.

Legend:
[1] = Conversion of prodrug to parent active compound in rat plasma (LC-MS/MS); type: in vitro ADME; conditions: 37° C., 10 μM start; for [ ] (μM) Prodrug remaining, t0 min.: 0 min; for [ ] (μM) Prodrug remaining, t15 min.: 15 min; for [ ] (μM) Prodrug remaining, t30 min.: 30 min; for [ ] (μM) Prodrug remaining, t60 min.: 60 min; for [ ] (μM) Prodrug remaining, t120 min.: 120 min
Procedure: (§1) The samples were then analysed by LC-MS/MS to obtain the amount of parent active compound appearing and prodrug derivative remaining over time.
(§2) Prodrug derivatives were assessed in the mouse, rat or human plasma stability assay at a concentration of 10 μM. Test compounds were diluted in DMSO to a final stock concentration of 10 mM. For the purpose of the assay, the stocks prepared were further diluted in DMSO to a concentration of 400 μM and 5 μL were added to 195 μL of mouse, rat or human plasma (pH 7.4) and then incubated at 37° C. The final concentration of DMSO in the plate was 2.5% (v/v). Reactions were terminated at 0, 15, 30, 60 and 120 min after incubation by adding 400 μl of acetonitrile containing 0.55 μM metoprolol and 1% (v/v) formic acid. The plate was then centrifuged at 3000 rpm, for 45 min, at 4° C. 80 μL of supernatant were transferred into a conical bottom 96 well glass coated plate. 40 μL of water were added prior to analysis for prodrug derivative and active species by LC-MS/MS. This assay was performed by a contract research organisation, Cyprotex Discovery Limited, UK, at the request of the inventors at Leicester.
(§3) (1) The parent active compound was quantified using a 6 point calibration curve prepared in deactivated mouse, rat or human plasma. (2) The percentage of prodrug compound remaining at each time point relative to 0 min sample was calculated from LC-MS/MS peak area ratios (compound peak area/internal standard peak area). This percentage was then used to determine the concentration of the prodrug compound at each time point in reference to the starting concentration (10 μM) at time 0 min.

[2] = Chemical stability assessment in PBS at 37.5° C. (HPLC); type: physicochemical; conditions: buffer, pH 6.2, read-out: Chemical stability at pH 6.2-7.2 (t1/2) (converted)
Procedure: (§4) Stability studies were carried out by dissolving 1-2 mg of compound in DMSO (1 mL) followed by addition of 0.4 mL of the resulting solution to stirred PBS solution (9.6 mL) at 37.5° C. A sample (ca. 0.5 mL) was immediately taken for HPLC analysis. Further samples were then taken for analysis at various timepoints thereafter. Half-lives were determined from the decrease in concentration of compound with respect to time.
as §4, with “performed” for “carried out”, “ml)” for “mL)”, “ml” for “mL”, “PBS” for “PBS solution”, “(˜0.5 ml)” for “(ca. 0.5 mL)”, “time-points” for “timepoints”

[3] = Conversion of prodrug to parent active compound in human plasma (LC-MS/MS); type: in vitro ADME; conditions: 37° C., 10 μM start; for [ ] (μM) Prodrug remaining, t0 min.: 0 min; for [ ] (μM) Prodrug remaining, t15 min.: 15 min; for [ ] (μM) Prodrug remaining, t30 min.: 30 min; for [ ] (μM) Prodrug remaining, t60 min.: 60 min
Procedure: as §1, §2, §3

[4] = target: pneumolysin (Streptococcus pneumoniae serotype 2, UniProt Q04IN8); assay: Inhibition of the haemolytic activity of pneumolysin (sheep erythrocytes); type: cell-based
Procedure: The basis of this assay is that when pneumolysin is added to red blood cells, it induces their lysis and leads to the release of haemoglobin. In the presence of an inhibitory compound, pneumolysin-induced lysis is abolished, the red blood cells pellet at the bottom of the microtitre plate well and the supernatant is clear. However, if the compound is not inhibitory, the red blood cells are lysed and haemoglobin is released into the supernatant.
Test compound solutions (typically at 5 mM in DMSO) were diluted 1:1 in 100% DMSO. The compounds were then two-fold serially diluted in 100% DMSO across 11 wells of 96-well round-bottomed microtitre plate. PBS was then added to all the wells to achieve a 1:10 dilution of the compound in PBS. Pneumolysin was then added at a concentration equal to its LD100. Plates were then incubated at 37° C. for 30-40 min. After the incubation period, an equal volume of 4% (v/v) sheep erythrocyte suspension was added to each well and the plates incubated again at 37° C., for at least 30 min. Controls with only erythrocytes in PBS (control for no lysis) or erythrocytes plus pneumolysin (control for lysis) were prepared following the same procedure. Following the incubation with the erythrocytes, the Absorbance at 595 nm of each well was measured and the data used to determine the IC50 for each test compound. The IC50 values were determined using non-linear regression curve fitting. For that, the Log of the concentrations of the test compound was plotted against the percentage inhibition, estimated from the A595 values, followed by fitting a Hill Slope to the data.

[5] = Solubility testing in PBS or 0.9% saline; type: physicochemical; conditions: for solubility: aqueous buffer, thermodynamic from solid, PBS
Procedure: Solubility studies were performed by charging a vial with 5-10 mg of compound followed by the 40 addition of PBS solution or 0.9% saline to achieve a concentration of 100 mg/ml. If solubility was not observed the solution was diluted to concentrations of 50 mg/ml, 25 mg/ml and 4 mg/ml consecutively until complete solubility was observed.

[6] = Conversion of prodrug to parent active compound in mouse plasma (LC-MS/MS); type: in vitro ADME; conditions: 37° C., 10 μM start; for [ ] (μM) Prodrug remaining, t0 min.: 0 min; for [ ] (μM) Prodrug remaining, t15 min.: 15 min; for [ ] (μM) Prodrug remaining, t30 min.: 30 min; for [ ] (μM) Prodrug remaining, t60 min.: 60 min; for [ ] (μM) Prodrug remaining, t120 min.: 120 min
Procedure: as §1, §2, §3

Chain of pneumolysin (Q04IN8 whole entry): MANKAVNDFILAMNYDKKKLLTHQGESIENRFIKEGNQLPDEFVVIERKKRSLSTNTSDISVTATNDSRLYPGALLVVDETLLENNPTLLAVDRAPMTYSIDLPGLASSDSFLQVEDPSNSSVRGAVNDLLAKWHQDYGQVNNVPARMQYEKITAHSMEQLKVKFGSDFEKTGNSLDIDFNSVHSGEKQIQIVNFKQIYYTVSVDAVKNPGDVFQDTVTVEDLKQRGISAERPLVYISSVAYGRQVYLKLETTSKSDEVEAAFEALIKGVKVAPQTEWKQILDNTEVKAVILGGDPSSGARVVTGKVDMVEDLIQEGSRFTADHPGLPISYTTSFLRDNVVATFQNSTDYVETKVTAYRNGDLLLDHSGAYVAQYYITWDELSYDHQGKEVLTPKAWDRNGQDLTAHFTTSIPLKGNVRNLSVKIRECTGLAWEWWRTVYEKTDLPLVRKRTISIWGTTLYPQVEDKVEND

SMILES | half-life [2] [h] | IC50 [4] [nM] | [ ] (μM) Prodrug remaining, t0 min. [6] [µM] | [ ] (μM) Prodrug remaining, t15 min. [6] [µM] | [ ] (μM) Prodrug remaining, t30 min. [6] [µM] | [ ] (μM) Prodrug remaining, t60 min. [6] [µM] | [ ] (μM) Prodrug remaining, t120 min. [6] [µM] | also measured
CCOC(=O)c1c(OC(=O)c2ccc(COP(=O)([O-])O)cc2)c(OC(=O)c2ccc(COP(=O)([O-])O)cc2)c(C(=O)N(C)C)n1-c1ccc(OC)cc1.[Na+].[Na+] [UL6-008, Sodium ((((2-(dimethylcarbamoyl)-5-(ethoxycarbonyl)-1-(4-methoxyphenyl)-1H-pyrrole-3,4-diyl)bis(oxy))bis(carbonyl))bis(4,1-phenylene))bis(methylene) bis(hydrogenphosphate)] | 144 | 1900 | 10.00 | 4.53 | 1.70 | 0.47 | 0.09 | [ ] (μM) Prodrug remaining, t0 min. [1]: 10.00 µM; [ ] (μM) Prodrug remaining, t15 min. [1]: 2.90 µM; [ ] (μM) Prodrug remaining, t30 min. [1]: 1.00 µM; [ ] (μM) Prodrug remaining, t60 min. [1]: 0.21 µM; [ ] (μM) Prodrug remaining, t120 min. [1]: 0.07 µM; [ ] (μM) Prodrug remaining, t0 min. [3]: 10.00 µM; [ ] (μM) Prodrug remaining, t15 min. [3]: 4.89 µM; [ ] (μM) Prodrug remaining, t30 min. [3]: 5.10 µM; [ ] (μM) Prodrug remaining, t60 min. [3]: 6.06 µM; [ ] (μM) Prodrug remaining, t120 min. ([3]; 120 min): 4.52 µM; solubility ([5]; pH 6): ≥ 100 mg/mL
COc1ccc(-n2c(C(=O)N(C)C)c(OC(=O)C(C)(C)C)c(OC(=O)C(C)(C)C)c2C(=O)N2CCN(C)CC2)cc1 [UL6-004, 2-(Dimethylcarbamoyl)-1-(4-methoxyphenyl)-5-(4-methylpiperazine-1-carbonyl)-1H-pyrrole-3,4-diyl bis(2,2-dimethylpropanoate) hydrochloride] |  | 1600 | 10.00 | 10.00 | 9.88 | 9.80 | 9.63 | 
COc1ccc(-n2c(C(=O)N(C)C)c(OC(=O)C(C)C)c(OC(=O)C(C)C)c2C(=O)N(C)C)cc1 [UL1-114, 2,5-Bis(dimethylcarbamoyl)-1-(4-methoxyphenyl)-1H-pyrrole-3,4-diyl bis(2-methylpropanoate)] |  | 19500 |  |  |  |  |  | 
COc1ccc(-n2c(C(=O)N(C)C)c(O)c(O)c2C(=O)N2CCN(C)CC2)cc1 [UL1-027, 3,4-Dihydroxy-1-(4-methoxyphenyl)-N,N-dimethyl-5-(4-methylpiperazine-1-carbonyl)-1H-pyrrole-2-carboxamide] |  | 200 |  |  |  |  |  | 
COc1ccc(-n2c(C(=O)N(C)C)c(OC(=O)c3cccc(COP(=O)(O)O)c3)c(OC(=O)c3cccc(COP(=O)(O)O)c3)c2C(=O)N(C)C)cc1.[Na+].[Na+] [UL6-006, Sodium ((((2,5-bis(dimethylcarbamoyl)-1-(4-methoxyphenyl)-1H-pyrrole-3,4-diyl)bis(oxy))bis(carbonyl))bis(3,1-phenylene))bis(methylene) bis(hydrogenphosphate)] | 29.5 | 300 | 10.00 | 2.05 | 0.79 | 0.10 | 0.04 | [ ] (μM) Prodrug remaining, t0 min. [1]: 10.00 µM; [ ] (μM) Prodrug remaining, t15 min. [1]: 8.90 µM; [ ] (μM) Prodrug remaining, t30 min. [1]: 1.17 µM; [ ] (μM) Prodrug remaining, t60 min. [1]: 0.21 µM; [ ] (μM) Prodrug remaining, t120 min. [1]: 0.07 µM; [ ] (μM) Prodrug remaining, t0 min. [3]: 10.00 µM; [ ] (μM) Prodrug remaining, t15 min. [3]: 2.15 µM; [ ] (μM) Prodrug remaining, t30 min. [3]: 0.05 µM; [ ] (μM) Prodrug remaining, t60 min. [3]: 0.01 µM; solubility ([5]; pH 5-6): ≥ 50 mg/mL
CCOC(=O)c1c(O)c(O)c(C(=O)N(C)C)n1-c1ccc(OC)cc1 [UL1-012, Ethyl 5-(dimethylcarbamoyl)-3,4-dihydroxy-1-(4-methoxyphenyl)-1H-pyrrole-2-carboxylate] | 1.02 |  |  |  |  |  |  | IC50 ([4]; Table 1, pneumolysin at LD100, sheep erythrocytes, 37° C., read-out: IC50): 200 nM; IC50 ([4]; Table 2, pneumolysin at LD100, sheep erythrocytes, 37° C., read-out: IC50): 200 nM; Solubility in 0.9% (w/v) saline, pH 6.5 or PBS pH 7.2 ([5]; result in words): Not soluble
COc1ccc(-n2c(C(=O)N(C)C)c(OC(=O)C(C)C)c(OC(=O)C(C)C)c2C(=O)N2CCN(C)CC2)cc1.Cl [UL6-002, 2-(Dimethylcarbamoyl)-1-(4-methoxyphenyl)-5-(4-methylpiperazine-1-carbonyl)-1H-pyrrole-3,4-diyl bis(2-methylpropanoate) hydrochloride] |  | 2000 | 10.00 | 0.00 | 0.00 | 0.02 | 0.00 | 
